# Key:
# [1] = test system: J774 cells; assay: HPLC of nucleotides in extracts of cells loaded by ATP poration; format: cell-based, mouse; settings: for intracellular nucleotides after loading (HPLC chromatogram): 20 min poration at 37° C. in DMEM pH 7.4 with 5 mM ATP, 5 mM AMP or 3.5 mM AMPS, FIG. 5
# Description: Acid soluble extracts of cell suspensions were prepared by adding ice-cold 70% perchloric acid to a final concentration of 7% (w/v). Acid insoluble fractions were removed by centrifugation for 10 min at 10,000 g and 4° C. (Eppendorf Centrifuge 5417R, Fischer Scientific, Pittsburgh, Pa.). Extracts were neutralized with ice-cold 5 M K2CO3, and were stored at −80° C. until analyzed. The potassium perchlorate precipitate was removed by centrifugation as above. Analyses were performed using a Dionex HPLC system, including a GP 50 gradient pump, an AS 50 auto-sampler and an AS 50 thermal compartment (Dionex, Sunnyvale, Calif.). Aliquots of the supernatant were applied to a 4.6 mm×25 cm reverse-phase column (Synergy 4M Hydro RP 80A, Phenomenex, Torrance, Calif.),and eluted isocratically for 15 min with a starting buffer of 50 mM K2HPO4/KH2PO4, pH 6.2, containing 10 mM tetrabutyl-ammonium hydrogen sulfate (Sigma, St. Louise, Mo.) at a flow rate of 1 mL/min at 30° C. Then a linear gradient from 0% to 25% acetonitrile was applied over 40 min. Absorbance of the effluent was monitored with a PDA-100 photodiode array detector (Dionex, Sunnyvale, Calif.) at wavelengths from λ=190 nm to λ=390 nm. Peaks were identified by comparison with retention times of standards, as well as by analyzing peak spectra between λ=190 nm and λ=390 nm from a recorded 3D-field with Chromeleon™ software (Dionex, Sunnyvale, Calif.). Concentrations of nucleotides were determined from a measurement of peak area at λ=260 nm. Calibration curves were linear over the range assayed.
# During poration, the cells were exposed to 5 mM AMP, or to 3.5 mM AMPS. Cells were extracted with perchloric acid after incubation. FIG. 5(A) depicts an HPLC chromatogram of the extracted AMP-loaded cells, and FIG. 5(B) depicts an HPLC chromatogram of the extracted AMPS-loaded cells.
# The experiment was otherwise conducted as described in Example 5 and illustrated in FIG. 5(B), except that cellular AMP-deaminase was inhibited by adding 35 μM coformycin to the medium.
# [2] = test system: J774 cells; assay: Viability (trypan blue exclusion) after air-drying and rehydration; format: cell-based, mouse; settings: 1 μM Trifluoperazine and 200 nM cyclosporin A together, in EB drying buffer and rehydration DMEM; versus control; FIG. 10
# [3] = test system: J774 cells; assay: Trehalose uptake with and without extracellular ATP; format: cell-based
# Description: Cell extracts were assayed for trehalose concentrations by separating carbohydrate peaks on a Hamilton RCX10 column, and then analyzing using pulsed amperometric electrochemical detection with an ESA Coulochem cell. […] The white bars are results from treatment for 15 minutes at 37° C. The cross-hatched bars are results from treatment for 15 minutes at 37° C., followed by 2 hours at 0° C. […] Each bar in FIG. 7 represents the mean of several different measurements. Although leaving the pores open for the longer periods of time at 37° C. can lead to cell death, the pores may be left open for longer periods at lower temperatures, while still leaving the cells viable and still allowing higher uptake of trehalose. At least 40% of the cells survived this treatment. We expect that the survivorship percentage will be improved by reducing the time the cells are held at 37° C. prior to chilling; future experiments will be done along these lines.
# [4] = test system: AMP-activated protein kinase; settings: cited from earlier work
# [5] = test system: J774 cells; assay: Cell proliferation (cell counts) after ATP poration; format: cell-based, mouse; settings: 15 min in Buffer 1+5 mM ATP, then spinner flask culture; FIG. 3
# Description: To introduce compounds that were otherwise membrane-impermeable into the cytoplasm, J774.A1 cells were centrifuged at 175 g; and were then resuspended in Buffer 1 (50 mM K2HPO4/KH2PO4, pH 7.0, 365 mOsm, 250 mM trehalose, 1 mM MgSO4, 5 mM glucose, supplemented with Basal Medium Eagle Vitamin Solution and MEM Amino Acids Solution (Invitrogen, Grand Islands, N.Y.), with each of the last two components diluted to 1×). […] The cells were incubated for 15 min or 30 min at 37° C. in sealed microtubes.
# (§1) To assess the effect of ATP-induced permeability on cell viability, cells were grown in suspension after activation and subsequent closure of the P2X7 receptor, as described above. […] The number of viable cells at different times was determined by counting with a hemocytometer after diluting the sample 1:1 with a 0.4% Trypan blue solution (Sigma, St. Louise, Mo.). Alternatively, cell viability was assessed by monitoring the metabolic activity of the cells with AlamarBlue™ (BioSource International, Inc., Camarillo, Calif.). […] After adding 20,000 to 40,000 cells to each well, absorbances at λ=570 nm and λ=600 nm were measured with a micro plate reader (Spectramax Plus, Molecular Devices, Sunnyvale, Calif.) at different times. […]
# In another series of experiments, we assessed the degree to which cell proliferation was suspended following poration. […]
# [6] = test system: J774 cells; assay: AlamarBlue reduction, metabolic activity after ATP-dependent poration; format: cell-based, mouse
# Description: J774.A1 mouse macrophage cells (ATCC, Manassas, Va.) were grown in 75 cm^2 cell culture flasks (Corning Incorporated, Corning, N.Y.) containing a standard culture medium of Dubelco's modified Eagle's medium without sodium pyruvate, supplemented with 10% fetal bovine serum, 100 units/mL penicillin, 100 μg/mL streptomycin, and 2 mM glutamine (“DMEM”) (all from Invitrogen, Grand Islands, N.Y.). The cells were maintained in a humidified atmosphere of 10% CO2 and 90% air at 37° C. The number of cells per flask was determined with a hemocytometer after removal with a cell scraper. […]
# as §1
# [7] = test system: J774 cells; assay: Calorimetric heat dissipation after ATP poration; format: cell-based, mouse; settings: Buffer 1+5 mM ATP, 37° C., FIG. 4
# Description: Calorimetric measurements were conducted to assess the influence of various treatments on the total energy flow of J774 cells. A 2277 thermal activity monitor (LKB Produkter, Bromma, Sweden) was used to measure the heat dissipation of J774 cells in suspension. A 4 mL static ampule charged with 2.7 mL water was used as a reference vessel. Static and dynamic calibrations against water in both ampules were performed before the experimental heat signals were measured. For the experiments, the sample ampule was charged with 2.7 mL of cell suspension. An aliquot of the spinner flask culture was diluted with standard culture medium to give 130,000-250,000 cells in 2.7 mL, which was equilibrated with 10% CO2 and 90% air. All calorimetric measurements were performed at 37° C. A two-hour period was allowed for thermal equilibration after lowering the ampule into the calorimeter. The power signal was then recorded for the next 20 hours. The ongoing proliferation of the cells produced a continuous increase in the heat signal during the measurements.
# In this series of experiments, we assessed the influence of ATP-induced poration on the heat dissipation of J774 cells. […] Each bar in FIG. 4 represents the mean±standard deviation for three to six separate measurements. The pair of asterisks for the bar at three hours indicates a statistically significant difference from control (P<0.05).
# [8] = test system: porated cells; assay: Early unpublished ATP-induced cell poration, cell survival; format: cell-based; settings: ATP-induced poration as in literature, pores not closed early; usually within about 24 hours
# Source text: We observed that various dyes were indeed taken up by the cells as reported in the literature. But, at least in our experiments, we also invariably observed that the cells died soon thereafter.
molecule,measurement,setting,value
Nc1ncnc2c1ncn2[C@@H]1O[C@H](COP(=O)(O)O)[C@@H](O)[C@H]1O [AMP],intracellular nucleotides after loading (HPLC chromatogram),[1],"an increase in ADP, and a substantial increase in IMP"
"CN1CCN(CCCN2c3ccccc3Sc3ccc(C(F)(F)F)cc32)CC1 [trifluoperazine, Trifluoperazine]",viability post-drying with apoptosis inhibitors,[2],higher viability post-drying
"Nc1ncnc2c1ncn2[C@@H]1O[C@H](COP(O)(O)=S)[C@@H](O)[C@H]1O [AMPS, Adenosine 5′-phosphorothioate]",uptake by the cells in the absence of ATP,"[3]; no pore opening, data not shown",only negligible concentrations
same,"Km value, fold lower than the natural effector 5′-AMP",[4],approximately 6 fold
same,intracellular AMPS with AMP-deaminase inhibited,"[1]; 3.5 mM AMPS, 5 mM ATP poration, 35 μM coformycin in medium, FIG. 6",substantial intracellular concentration of AMPS was observed
same,intracellular nucleotides after loading (HPLC chromatogram),[1],substantial production of a new compound
cyclosporin A,viability post-drying with apoptosis inhibitors,[2],higher viability post-drying
OC[C@H]1O[C@H](O[C@H]2O[C@H](CO)[C@@H](O)[C@H](O)[C@H]2O)[C@H](O)[C@@H](O)[C@@H]1O [trehalose],trehalose uptake in ATP-treated cells,"[3]; Buffer 1+5 mM ATP (250 mM trehalose), versus Buffer 1 without ATP, 15 min 37° C. or plus 2 h 0° C., FIG. 7",significantly higher trehalose uptake
same,trehalose uptake in the absence of extracellular ATP,"[3]; Buffer 1 without ATP, FIG. 7",Some uptake of trehalose was observed
"Nc1ncnc2c1ncn2[C@@H]1O[C@H](COP(=O)(O)OP(=O)(O)OP(=O)(O)O)[C@@H](O)[C@H]1O [ATP, adenosine 5′-triphosphate]",time for which cell proliferation stopped after poration,[5],approximately 20 hours
same,cells surviving extended pore opening at low temperature,"[3]; Buffer 1+5 mM ATP, 15 min at 37° C. followed by 2 hours at 0° C.",At least 40%
same,metabolic activity when poration time increased from 15 minutes to 30 minutes,"[6]; Buffer 1+5 mM ATP, measured 17 h and 41 h after treatment, FIG. 2",decreased substantially
same,reduction of metabolic activity (AlamarBlue reduction),"[6]; J774 cells, 40,000 per well, 15 min incubation, versus untreated control, FIG. 1",about 50%
same,heat dissipation 3 hours after poration,[7]; versus control cells,significantly reduced
same,heat signal 24 hours after poration,[7]; versus untreated control cells,indistinguishable from that for the untreated control cells
same,fate of porated cells in early work,[8],invariably died
OC[C@H]1O[C@@H](n2cnc3c2N=CNC[C@H]3O)[C@H](O)[C@@H]1O [coformycin],effect on the metabolism of AMPS in the cells,"[1]; 35 μM coformycin in medium, AMPS-loaded porated cells, FIG. 6",inhibited the metabolism of AMPS in the cells
